One block for each molecule: values may come before it. Active and inactive are the calls of the source. No cut-off for these calls is given here.
Assays:
[1] = (§1) Cytotoxicity against human HL60 cells assessed as cell survival at 50 uM after 72 hrs by CCK8 assay; type: functional; conditions: HL-60, 72 h, read-out: Survival
[2] = Retention time of the compound by UPLC analysis; type: physicochemical
[3] = test system: HL-60; test: as §1; type: functional
[4] = test system: HL-60; test: Induction of cell morphological changes in human HL60 cells assessed as increase in cellular size at 50 uM by Giemsa staining method; type: functional, cell-based
[5] = test system: HL-60; test: Induction of cell morphological changes in human HL60 cells assessed as increase in nuclear complexity at 50 uM by Giemsa staining method; type: functional, cell-based
[6] = test system: HL-60; test: Induction of apoptosis in human HL60 cells assessed as membrane blebbing at 50 uM by Hoechst 33342 staining method; type: functional, cell-based
[7] = test system: HL-60; test: Induction of cell morphological changes in human HL60 cells assessed as increase in cytoplasmic content at 50 uM by Giemsa staining method; type: functional, cell-based
[8] = test system: HL-60; test: Induction of apoptosis in human HL60 cells assessed as chromatin condensation at 50 uM by Hoechst 33342 staining method; type: functional, cell-based
[9] = test system: HL-60; test: Induction of apoptosis in human HL60 cells assessed as nuclear fragmentation at 50 uM by Hoechst 33342 staining method; type: functional, cell-based

Compound: C[C@@H]1O[C@@H](Oc2c(-c3ccc(O)c(O)c3)oc3cc(O)cc(O)c3c2=O)[C@H](O)[C@H](O)[C@H]1O [QUERCITRIN]
viability at 50 µM [1]: 46.8% | Retention_time [2]: 23.37 min

Compound: O=c1c(O)c(-c2ccc(O)c(O)c2)oc2cc(O)cc(O)c12 [QUERCETIN]
viability at 50 µM [1]: 29.7% | Retention_time [2]: 28.97 min

Compound: Oc1cc(O)c2c(c1)O[C@H](c1ccc(O)c(O)c1)[C@@H](O)[C@@H]2c1c(O)cc(O)c2c1O[C@H](c1ccc(O)c(O)c1)[C@@H](O)C2
viability at 50 µM [1]: 58.9% | Retention_time [2]: 14.6 min

Compound: O=c1c(O)c(-c2ccc(O)cc2)oc2cc(O)cc(O)c12
Activity [3]: Active

Compound: C[C@@H]1O[C@@H](Oc2c(-c3ccc(O)cc3)oc3cc(O)cc(O)c3c2=O)[C@H](O)[C@H](O)[C@H]1O [AFZELIN]
viability at 50 µM [1]: 45.8% | Retention_time [2]: 25.42 min

Retention_time [2]: 17.1 min
Compound: Oc1cc(O)c2c(c1)O[C@H](c1ccc(O)c(O)c1)[C@H](O)C2 [(-)-EPICATECHIN]

Compound: O=C(O[C@H]1[C@H](Oc2c(-c3ccc(O)cc3)oc3cc(O)cc(O)c3c2=O)O[C@H](CO)[C@@H](O)[C@@H]1O)c1cc(O)c(O)c(O)c1
viability at 50 µM [1]: 48.3% | Retention_time [2]: 27.02 min

Compound: CCOC(=O)c1cc(O)c(O)c(O)c1 [ETHYLGALLATE]
viability at 50 µM [1]: 55.7% | Retention_time [2]: 20.55 min

Compound: O=c1c(O[C@@H]2O[C@H](CO)[C@@H](O)[C@H](O)[C@H]2O)c(-c2ccc(O)cc2)oc2cc(O)cc(O)c12
Activity [3]: Active

Compound: O=C(OC[C@H]1O[C@@H](Oc2c(-c3ccc(O)cc3)oc3cc(O)cc(O)c3c2=O)[C@H](OC(=O)c2cc(O)c(O)c(O)c2)[C@@H](O)[C@@H]1O)c1cc(O)c(O)c(O)c1
viability at 50 µM [1]: 24.6% | Activity [4]: Active | Activity [5]: Active | Activity [6]: Active | Activity [7]: Active | Retention_time [2]: 23.37 min | Activity [8]: Active | Activity [9]: Active

Compound: O=C(O)c1cc(O)c(O)c(O)c1 [GALLIC ACID]
viability at 50 µM [1]: 4.3% | Retention_time [2]: 5.04 min

Compound: Oc1cc(O)c2c(c1)O[C@H](c1ccc(O)c(O)c1)[C@@H](O)C2 [CIANIDANOL]
viability at 50 µM [1]: 47% | Retention_time [2]: 13.56 min

Reference: ChEMBL document CHEMBL3352448, “Phytochemical analysis and antileukemic activity of polyphenolic constituents of Toona sinensis” (Bioorg Med Chem Lett, 2014)
